The values that follow come from the NIST ThermoML archive (doi:10.1021/acs.jced.9b00068).

The conditions of series [1]: Liquid; for mass density: 298.15 K, 101.33 kPa, Vibrating tube method; for vapor or sublimation pressure: Ebulliometric method (Recirculating still).
Series [2] can be described thus: refractive index (Na D-line) (dimensionless). The following applies: 298.15 K; 101.33 kPa; Liquid; Standard Abbe refractometry.

Molecules are shown by their SMILES. ± gives the expanded uncertainty stated by the source.

On to `CCOC(=O)OCC` [diethyl carbonate], for which the mass density in series [1] is listed as 969.4 ± 0.2 kg/m3. Moreover, the “vapor or sublimation pressure” value in series [1] (399.6 K) is listed as 100.17 ± 2 kPa. Also, the refractive index in series [2] was 1.3821 ± 0.0004.
For `COC(=O)OC` [dimethyl carbonate], the mass density in series [1] was found to be 1062.7 ± 0.2 kg/m3. In series [1] (362.5 K), the “vapor or sublimation pressure” value is 100.17 ± 2 kPa. Also, in series [2], the refractive index is 1.3664 ± 0.0004.
For `CO` [methanol], in series [1], the mass density came to 787.7 ± 0.2 kg/m3. For the same molecule, the “vapor or sublimation pressure” value in series [1] (337.5 K) was 100.17 ± 2 kPa. Besides, the refractive index in series [2] is reported as 1.3275 ± 0.0004.
With `COC(C)=O` [methyl ethanoate], in series [1], the mass density was 927.4 ± 0.2 kg/m3. The “vapor or sublimation pressure” value in series [1] (330.2 K) is 100.17 ± 2 kPa. In addition, the refractive index in series [2] came out at 1.3587 ± 0.0004.
For the molecule `CCCCCOC(C)=O` [pentyl ethanoate], the mass density in series [1] stood at 872.3 ± 0.2 kg/m3. Moreover, the “vapor or sublimation pressure” value in series [1] (421.6 K) is reported as 100.17 ± 2 kPa. Further, the refractive index in series [2] was found to be 1.3999 ± 0.0004.
As to `CCCOC(C)=O` [propyl ethanoate], in series [1], the mass density came out at 882.9 ± 0.2 kg/m3. Moreover, the “vapor or sublimation pressure” value in series [1] (373.8 K) is given as 100.17 ± 2 kPa. Moreover, in series [2], the refractive index turned out to be 1.3815 ± 0.0004.
